Experimental data taken from patent US7235551B2, “1,5-disubstituted-3,4-dihydro-1h-pyrimido[4,5-d]pyrimidin-2-one compounds and their use in treating csbp/p38 kinase mediated diseases” (SmithKline Beecham Corporation, priority 2000, dated 2007).

melting point	Structure (SMILES)
172 to 175 °C	Cc1cc(F)ccc1-c1nc(OCCO)nc2c1CNC(=O)N2c1c(F)cccc1F [Example 163, 1-(2,6-Difluorophenyl)-5-(4-fluoro-2-methylphenyl)-7-(2-hydroxyethoxy)-3,4-dihydro-1H-pyrimido[4,5-d]pyrimidin-2-one]
210 to 211 °C	COc1nc(-c2ccc(F)cc2C)c2c(n1)N(c1c(F)cccc1F)C(=O)NC2 [Example 161, 1-(2,6-Difluorophenyl)-5-(4-fluoro-2-methylphenyl)-7-methoxy-3,4-dihydro-1H-pyrimido[4,5-d]pyrimidin-2-one]
221 to 224 °C	COc1nc(-c2ccccc2)c2c(n1)N(c1c(F)cccc1F)C(=O)NC2 [Example 166, 1-(2,6-Difluorophenyl)-5-phenyl-7-methoxy-3,4-dihydro-1H-pyrimido[4,5-d]pyrimidin-2-one]
220 to 222 °C	COc1nc(-c2ccccc2)c2c(n1)N(c1ccccc1)C(=O)NC2 [Example 167, 1,5-diphenyl-7-methoxy-3,4-dihydro-1H-pyrimido[4,5-d]pyrimidin-2-one]
